# Source: US11613785B2, “Predictive and diagnostic methods for prostate cancer” (OnkosXcel Therapeutics, LLC, priority 2017, dated 2023)
# Tests used:
# [1] = test system: NK cells, macrophages, FoxP3+ Tregs in tumor; experiment: Immunophenotyping of tumor samples by RT-PCR; assay type: in vivo; conditions: TRAMP mouse tumor samples
# Method: Immunophenotyping of tumor samples by RT-PCR: Tumor RNA samples are extracted from the frozen tumor tissues using the Trizol reagent. Reverse transcription is carried out using a kit from Takara (Catalog No. #RR047A). Quantitative PCR are conducted using a master mix from Invitrogen (Catalog No. #4309155) on an ABI 7900HT Fast Real-Time PCR System. The results are analyzed using a Delta Ct Method. The marker gene and respective oligo sequence used in this study are from the NIH q-RT-PCR primer database (mouseqprimerdepot.nih.gov) these are associated with the Ncrl and Pfrl (NK cell receptor) a marker characteristic to the NK cell and their activation respectively, while the Gmbz is meant for quantifying the release of granzyme B and the FoxP3 associated with CD25+CD4+ Tregs. Statistical Analysis: A one-way ANOVA is also used to assess the statistical difference between the vehicle group and all other groups in the blood sample immune-phenotyping and q-RT-PCR assay as well as on the microarray samples on the indicated day. All the data is analyzed using GraphPad Prism 5. p<0.05 is statistically significant (*, p<0.05; **, p<0.01; ***, p<0.001).
# [2] = test system: TRAMP mouse model of NEPC; experiment: Efficacy study (tumor volume) in transgenic mouse model of NEPC (TRAMP mouse); assay type: in vivo; conditions: TRAMP mice; talabostat mesylate 20 μg qd p.o.; PD-1 antagonist 10 mg/kg i.p. twice weekly
# From the text: Efficacy Study of Talabostat Mesylate and PD-1 Antagonist in Transgenic Mouse Model of NEPC (TRAMP Mouse)
# Reagents and Antibodies: RPMI-1640 medium (Catalog No.: A1049101), Glutamax (Catalog No.: 35050061), Trypsin-EDTA (0.25%) (Catalog No.: 25200-056), Penicillin-Streptomycin (Catalog No.: 15070-063), HBSS (Catalog No.: 14175-095) are procured form Gibco, while Fetal bovine serum (FBS) (Catalog No.: 004-001-1A) is purchased from Biological Industries. The anti-PD-1 antibody (PD-1 antagonist (clone: RMPI-14, Catalog no: BE0146)) is supplied by Bioxcell at 6.61 mg/ml. Stock solutions of PD-1 antagonist, at 1 mg/ml concentrations are prepared and kept at 4° C. prior to use. Dosing solutions of PD-1 antagonist are prepared freshly at a concentration of 1 mg/ml, before every administration in sterile phosphate buffered saline (PBS), pH 7.0 and administered a dose of 10 mg/kg, intraperitoneally (i.p) into, 20 g mouse. […]
# Tumor size and body weights are measured twice weekly. Tumor volumes are measured twice per week in two dimensions using a caliper, and the volume are expressed in mm^3 using the formula: V=0.5 a×b^2 where a and b are the length and width of the tumor, respectively. […] Tumor volume is expressed in mm^3, is measured with caliper on day 5, 8, 12, 15, 19, 22, 26 and day 29.
substance,measurement,setting,value
talabostat mesylate,FoxP3+ Treg population (relative mRNA expression of FoxP3) in tumor samples,[1],reduction in the FoxP3 population
same,tumor reduction (tumor volume),[2],significant effect
